Among the data in ChEMBL document CHEMBL5052854, “Alpha-5 beta-1 inhibitors” (2021) are IC50 values, retold here.

As a reminder, the IC50 is the concentration needed to halve the response being measured.

This assay concerns FG2. In words: Inhibition of cell adhesion in human FG2 cells assessed as decrease in cell adhesion to matrix incubated for 1 hr by crystal violet staining based assay. It counts as functional. Conditions: FG2, 1 h.
In the case of `O=C(CNC(=O)c1cccc(NC2=NCC(O)CN2)c1)NC[C@H](NC(=O)c1c(Cl)cc(-c2ccccc2)cc1Cl)C(=O)O` (stereo partly drawn), the IC50 is less than 100 nM.

As to `N=C(N)Nc1ccc2ccn(CCC(=O)NC[C@H](NC(=O)c3c(Cl)cccc3Cl)C(=O)O)c2c1`, the IC50 was less than 10000 nM.

On to `N=C(N)Nc1ccc2c(c1)C(NCC(=O)NC[C@H](NC(=O)c1c(Cl)cccc1Cl)C(=O)O)CCO2` (stereo partly drawn), for which the IC50 is less than 1000 nM.

As to `Cc1cccc(Cl)c1C(=O)N[C@@H](CNC(=O)CNC(=O)c1cccc(NC(=N)N)c1)C(=O)O`, the IC50 was less than 1000 nM.

As for `O=C(CNC(=O)c1cccc(NC2=NCC(F)(F)CN2)c1)NC[C@H](NC(=O)c1c(Cl)cc(-c2ccc3cn[nH]c3c2)cc1Cl)C(=O)O`, the IC50 was less than 100 nM.

Turning to `C[C@@H](NC(=O)c1cccc(NC2=NCC(F)CN2)c1)C(=O)NC[C@H](NC(=O)c1c(Cl)cc(-c2ccccc2)cc1Cl)C(=O)O` (stereo partly drawn), the IC50 came to 101 nM.

For the compound `CNc1cccc(C(=O)NCC(=O)NC[C@H](NC(=O)c2c(Cl)cc(-c3ccccc3)cc2Cl)C(=O)O)n1`, the IC50 was 1000 nM.

`O=C(CNC(=O)c1cccc(NC2=NCC(F)(F)CN2)c1)NC[C@H](NC(=O)c1c(Cl)cc(-c2ccccc2)cc1Cl)C(=O)O`: the IC50 is less than 100 nM.

Take `O=C(CNC(=O)c1cccc(NC2=NCCCS2)c1)NC[C@H](NC(=O)c1c(Cl)cc(-c2ccccc2)cc1Cl)C(=O)O`: the IC50 is less than 100 nM.

In the case of `O=C(CNC(=O)c1cccc(NC2=NCCCO2)c1)NC[C@H](NC(=O)c1c(Cl)cc(-c2ccccc2)cc1Cl)C(=O)O`, the IC50 was less than 100 nM.

Take `O=C(CNC(=O)c1cccc(NC2=NCC(F)(F)CN2)c1)NC[C@H](NC(=O)c1c(Cl)cc(N2CCOCC2)cc1Cl)C(=O)O`: the IC50 was less than 100 nM.

In the case of `N=C(N)Nc1cccc(C(=O)NCC(=O)NC[C@H](NC(=O)c2c(Cl)cccc2Cl)C(=O)O)c1`, the IC50 is less than 100 nM.

With `O=C(CNC(=O)c1cccc(NC2=NCC(F)CN2)c1)NC[C@H](NC(=O)c1c(Cl)cc(-c2ccccc2)cc1Cl)C(=O)O` (stereo partly drawn), the IC50 is less than 100 nM.

Consider `Cc1ccnc(Nc2cccc(C(=O)NCC(=O)NC[C@H](NC(=O)c3c(Cl)cccc3Cl)C(=O)O)c2)c1`, for which the IC50 is less than 10000 nM.

For the compound `CS(=O)(=O)c1ccc(-c2cc(Cl)c(C(=O)N[C@@H](CNC(=O)CNC(=O)c3cccc(NC(=N)N)c3)C(=O)O)c(Cl)c2)cc1`, the IC50 was less than 100 nM.

For the compound `O=C(CNC(=O)c1cccc(NC2=NCC(F)CN2)c1)NC[C@H](NC(=O)c1c(Cl)cc(-c2ccc3cn[nH]c3c2)cc1Cl)C(=O)O` (stereo partly drawn), the IC50 was less than 100 nM.

Turning to `N=C(N)Nc1cccc(C(=O)NCC(=O)NC[C@H](NC(=O)c2c(Cl)cc(-c3ccccc3)cc2Cl)C(=O)O)c1`, the IC50 is less than 100 nM.

As to `COc1ccc(Nc2cccc(C(=O)NCC(=O)NC[C@H](NC(=O)c3c(Cl)cccc3Cl)C(=O)O)c2)nc1`, the IC50 was less than 50000 nM.

On to `O=C(CNC(=O)c1cccc(NC2=NCCCN2)c1)NC[C@H](NC(=O)c1c(Cl)cc(-c2ccccc2)cc1Cl)C(=O)O`, for which the IC50 was less than 100 nM.

On to `C/N=C(\NC)Nc1cccc(C(=O)NCC(=O)NC[C@H](NC(=O)c2c(Cl)cc(-c3ccccc3)cc2Cl)C(=O)O)c1`, for which the IC50 was found to be 101 nM.

In the case of `CN(CC(=O)NC[C@H](NC(=O)c1c(Cl)cc(-c2ccccc2)cc1Cl)C(=O)O)C(=O)c1cccc(NC(=N)N)c1`, the IC50 came out at 101 nM.

On to `N#C/N=C(\N)Nc1cccc(C(=O)NCC(=O)NC[C@H](NC(=O)c2c(Cl)cccc2Cl)C(=O)O)c1`, for which the IC50 is 100 nM.

As for `N=C(N)Nc1cccc(C(=O)NCC(=O)NC[C@H](NC(=O)c2c(Cl)cc(N3CCOCC3)cc2Cl)C(=O)O)c1`, the IC50 was less than 100 nM.

For `O=C(CNC(=O)c1cccc(NC2=NCCCN2)c1)NC[C@H](NC(=O)c1c(Cl)cccc1Cl)C(=O)O`, the IC50 was less than 100 nM.

Turning to `O=C(CNC(=O)c1cccc(NC2=NCC(F)CN2)c1)NC[C@H](NC(=O)c1c(Cl)cc(N2CCS(=O)(=O)CC2)cc1Cl)C(=O)O` (stereo partly drawn), the IC50 was less than 100 nM.

`N#C/N=C(\N)Nc1cccc(C(=O)NCC(=O)NC[C@@H](NC(=O)c2c(Cl)cccc2Cl)C(=O)O)c1`: the IC50 is less than 10000 nM.

Regarding `O=C(CNC(=O)c1cccc(NC2=NCC(F)CN2)c1)NC[C@H](NC(=O)c1c(Cl)cc(N2CCOCC2)cc1Cl)C(=O)O` (stereo partly drawn), the IC50 is less than 100 nM.

On to `N#Cc1cc(NC(=N)N)cc(C(=O)NCC(=O)NC[C@H](NC(=O)c2c(Cl)cc(-c3ccccc3)cc2Cl)C(=O)O)c1`, for which the IC50 was less than 100 nM.
